{
  "source": "patent US4426524A",
  "about": "“Heterocyclic substituted benzyl alcohol, insecticidal ester derivatives, and intermediates” (priority 1982, dated 1984)",
  "key": {"twospotted spider mite": {"tested_on": "twospotted spider mite", "assay": "Foliar application, twospotted spider mite", "assay_type": "in vivo", "conditions": "Tetranychus urticae; TSM, foliar, 512 ppm, 48 hours; read-out: Foliar % Kill (ppm)", "procedure": "(§1) Foliar Application: The activity of some of the compounds of the invention against various test species selected from pea aphid (Acyrthosiphon pisum), twospotted spider mite (Tetranychus urticae), southern armyworm (Spodoptera eridania), Mexican bean beetle (Epilachna varivestis), and cabbage looper (Tricoplusia ni) was determined by foliar application of the test compound. The test materials were formulated as aqueous solutions containing 10% acetone and 0.25% acetylphenoxypolyethoxyethanol. Activity against pea aphid was determined on English fava bean plants the leaves of which were sprayed to runoff with various concentrations of test solution prior to infestation with adult aphids. Activity against twospotted spider mite was evaluated on pinto bean plants whose leaves were sprayed to runoff with various concentrations of test solution after infestation with adult mites. Activity against the remaining species was evaluated on pinto bean plants whose leaves were sprayed to runoff with various concentrations of test solution before infestation with the appropriate immature insects. Mortality was read approximately 48 hours after treatment."}, "cabbage looper [1]": {"tested_on": "cabbage looper", "assay": "Topical application, cabbage looper", "assay_type": "in vivo, Tricoplusia ni", "conditions": "CL", "procedure": "(§2) Topical Application: The compounds of this invention were tested for insecticidal activity against various insect species selected from southern armyworm (Spodoptera eridania), Mexican bean beetle, (Epilachna varivestis), milkweed bug (Oncopeltus fasciatus), and cabbage looper (Tricoplusia ni) by applying to the second or third dorsal thoracic segment of each larvae a one microliter droplet containing 5 mg/mL of test compound in acetone (5000 ng/insect). The test was allowed to stand 24 hours after application and was then read to determine the percent kill.\n(§3) To determine the LD50 of the compounds, the topical application test was repeated by applying various amounts of toxicant. Also included among the species tested against for this determination were tobacco budworm (Heliothis virescens), beet armyworm (Spodoptera exigua), and boll weevil (Anthonomus grandis)."}, "southern armyworm [2]": {"tested_on": "southern armyworm", "assay": "Foliar application, southern armyworm", "assay_type": "in vivo", "conditions": "Spodoptera eridania; SAW, foliar, 512 ppm, 48 hours; read-out: Foliar % Kill (ppm)", "procedure": "as §1"}, "boll weevil": {"tested_on": "boll weevil", "assay": "Topical application, boll weevil", "assay_type": "in vivo, Anthonomus grandis", "conditions": "BW", "procedure": "as §2, §3"}, "southern armyworm [3]": {"tested_on": "southern armyworm", "assay": "Topical application, southern armyworm", "assay_type": "in vivo, Spodoptera eridania", "conditions": "SAW", "procedure": "as §2, §3"}, "milkweed bug [4]": {"tested_on": "milkweed bug", "assay": "Topical application, milkweed bug", "assay_type": "in vivo, Oncopeltus fasciatus", "conditions": "MWB", "procedure": "as §2, §3"}, "milkweed bug [5]": {"tested_on": "milkweed bug", "assay": "Foliar application, milkweed bug", "assay_type": "in vivo", "conditions": "Oncopeltus fasciatus, MWB, 48 hours, read-out: Foliar % Kill (ppm)"}, "tobacco budworm": {"tested_on": "tobacco budworm", "assay": "Topical application, tobacco budworm", "assay_type": "in vivo, Heliothis virescens", "conditions": "TBW", "procedure": "as §2, §3"}, "pea aphid": {"tested_on": "pea aphid", "assay": "Foliar application, pea aphid", "assay_type": "in vivo", "conditions": "Acyrthosiphon pisum; PA, foliar, 512 ppm, 48 hours; read-out: Foliar % Kill (ppm)", "procedure": "as §1"}, "Mexican bean beetle": {"tested_on": "Mexican bean beetle", "assay": "Topical application, Mexican bean beetle", "assay_type": "in vivo, Epilachna varivestis", "conditions": "MBB", "procedure": "as §2, §3"}, "cabbage looper [6]": {"tested_on": "cabbage looper", "assay": "Foliar application, cabbage looper", "assay_type": "in vivo, Tricoplusia ni", "conditions": "Trichoplusia ni, CL, 24 ppm, 48 hours, read-out: Foliar % Kill (ppm)", "procedure": "as §1"}},
  "data": [
    {"compound": "Cc1c(COC(=O)[C@H]2[C@@H](C=C(Cl)C(F)(F)F)C2(C)C)cccc1-c1cccs1", "note": "(relative stereo) [e, [2-methyl-3-(2-thienyl)phenyl]-methyl cis-3-(2-chloro-3,3,3-trifluoro-1-propenyl)-2,2-dimethylcyclopropanecarboxylate]", "values": [
      {"measurement": "mortality at 512 ppm", "setting": "twospotted spider mite", "result": 100, "unit": "%"},
      {"measurement": "Topical LD50", "setting": "cabbage looper [1]", "result": 74, "unit": "ng/insect"},
      {"measurement": "mortality at 512 ppm", "setting": "southern armyworm [2]", "result": 100, "unit": "%"},
      {"measurement": "Topical LD50", "setting": "boll weevil", "result": 11, "unit": "ng/insect"},
      {"measurement": "Topical LD50", "setting": "southern armyworm [3]", "result": 23, "unit": "ng/insect"},
      {"measurement": "Topical % Kill @ 5000 ng/insect", "setting": "southern armyworm [3]; 5000 ng/insect, 24 hours", "result": 100, "unit": "%"},
      {"measurement": "Topical LD50", "setting": "milkweed bug [4]", "result": 72, "unit": "ng/insect"},
      {"measurement": "Topical % Kill @ 5000 ng/insect", "setting": "milkweed bug [4]; 5000 ng/insect, 24 hours", "result": 100, "unit": "%"},
      {"measurement": "mortality at 512 ppm", "setting": "milkweed bug [5]", "result": 100, "unit": "%"},
      {"measurement": "Topical LD50", "setting": "tobacco budworm", "result": 43, "unit": "ng/insect"},
      {"measurement": "mortality at 512 ppm", "setting": "pea aphid", "result": 100, "unit": "%"},
      {"measurement": "Topical LD50", "setting": "Mexican bean beetle", "result": 7, "unit": "ng/insect"},
      {"measurement": "Topical % Kill @ 5000 ng/insect", "setting": "Mexican bean beetle; 5000 ng/insect, 24 hours", "result": 100, "unit": "%"},
      {"measurement": "mortality at 24 ppm", "setting": "cabbage looper [6]", "result": 95, "unit": "%"}
    ]}
  ]
}
